Experimental data taken from patent publication US5693628A, “11-benzaldoxime-estra-diene derivatives, methods for their production and pharmaceuticals containing these compounds” (priority 1994, dated 1997).

Tests used:
glucocorticoid receptor = biological target: T1, glucocorticoid receptor (Rattus norvegicus, UniProt P06536); assay: relative molar bonding affinity to glucocorticoid receptor (competitive bonding); assay type: binding; conditions: dexamethasone = 100%; thymus cytosol of adrenalectomized rat; 3H-dexamethasone, 20 nM; 18 h, 0-4° C.
T1 construct: thymus cytosol of the adrenalectomized rat; from tissue; host or cells: thymus (cytosol) of adrenalectomized rat
T1 sequence (P06536 1-795): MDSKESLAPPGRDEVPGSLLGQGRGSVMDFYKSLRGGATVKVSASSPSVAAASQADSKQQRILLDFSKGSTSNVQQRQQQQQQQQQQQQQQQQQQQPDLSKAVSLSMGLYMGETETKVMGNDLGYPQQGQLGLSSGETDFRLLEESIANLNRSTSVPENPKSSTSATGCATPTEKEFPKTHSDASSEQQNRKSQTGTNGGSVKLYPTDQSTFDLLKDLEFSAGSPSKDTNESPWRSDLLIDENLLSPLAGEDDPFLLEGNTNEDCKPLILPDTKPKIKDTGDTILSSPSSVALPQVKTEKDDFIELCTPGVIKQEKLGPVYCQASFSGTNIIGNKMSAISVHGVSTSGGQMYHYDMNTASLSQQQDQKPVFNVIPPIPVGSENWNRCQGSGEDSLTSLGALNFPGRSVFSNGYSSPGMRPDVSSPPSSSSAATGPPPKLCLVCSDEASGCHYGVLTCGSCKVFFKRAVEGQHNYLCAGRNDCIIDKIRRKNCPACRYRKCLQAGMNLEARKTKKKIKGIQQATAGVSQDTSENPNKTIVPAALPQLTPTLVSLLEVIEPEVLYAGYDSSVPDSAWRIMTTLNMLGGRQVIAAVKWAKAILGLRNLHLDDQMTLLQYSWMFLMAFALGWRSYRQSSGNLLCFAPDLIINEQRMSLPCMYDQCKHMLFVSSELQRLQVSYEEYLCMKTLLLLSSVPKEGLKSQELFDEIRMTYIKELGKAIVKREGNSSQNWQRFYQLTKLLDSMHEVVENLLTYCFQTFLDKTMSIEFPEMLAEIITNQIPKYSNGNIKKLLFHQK
Protocol: (§1) Measurement of bonding affinity for receptors
(§2) Receptor bonding affinity was determined by competitive bonding of a specifically binding ^3 H labelled hormone (tracer) and the compound to be tested to receptors in the cytosol from animal target organs. It was tried to obtain receptor saturation and a balanced reaction. The following incubation conditions were selected:
Glucocorticoid receptor: thymus cytosol of the adrenalectomized rat, thymi kept at -30° C., buffer: TED. Tracer: ^3 H-dexamethasone, 20 nM; reference substance: dexamethasone.
(§3) After an incubation period of 18 hours at 0°-4° C., bonded and free steroid was separated by mixing in active carbon/dextrane (1%/0.1%), centrifuging off and measuring the bonded ^3 H activity in the supernatant.
(§4) The IC50 for the compound to be tested and for the reference substance were determined from measurements in series of concentrations.

[1] = system: early gravidity in the rat; assay: Early abortive effect / inhibition of early gravidity in the rat; assay type: in vivo; conditions: 5th to 7th day of pregnancy; for complete gravidity inhibition % / complete gravidity inhibition N*/N (females not pregnant/inseminated females): empty uteri
Protocol: Inhibition of early gravidity in the rat
Female rats are mated in the pro-oestrus. If semen is found in the vaginal smear on the next day, this day is counted as day 1 (=d1) of the gravidity. Treatment with the test substance or vehicle is applied on d5-d7, autopsy is carried out on d9. The substances are injected subcutaneously in 0.2 ml of vehicle (benzyl benzoate/castor oil 1+4).

[2] = system: uterine weight in cyclic guinea pigs; assay: Influence on uterine weight in cyclic guinea pigs; assay type: in vivo, guinea pig
Excerpt: FIG. 1. is a chart showing a comparison of the influence on uterine weight in cyclic guineau pigs when treated with the antigestagen agents RU 486, a control (the vehicle), and a compound of the present invention, J 867 (as prepared in accordance with Example 1).
FIG. 1 compares the influence of antigestagen treatment of cyclic guinea pigs on uterine weights for J 867 and RU 486.
Treatment of female guinea pigs with antigestagen
Treatment of adult female guinea pigs from day 10 to day 18 of the cycle (autopsy). Administration of the specified doses using subcutaneous osmotic pumps (Type 2 ML1 ALZET). Vehicle: […] propylene glycol/24 hrs.

progesterone receptor = biological target: T2, progesterone receptor (Oryctolagus cuniculus, UniProt P06186); assay: relative molar bonding affinity to progesterone receptor (competitive bonding); assay type: binding; conditions: progesterone = 100%; uterine cytosol of estradiol-primed rabbit; 3H-ORG 2058, 5 nM; 18 h, 0-4° C.
T2 construct: uterine cytosol of the estradiol-primed rabbit; from tissue; host or cells: uterus (cytosol) of estradiol-primed rabbit
T2 sequence (P06186 1-930): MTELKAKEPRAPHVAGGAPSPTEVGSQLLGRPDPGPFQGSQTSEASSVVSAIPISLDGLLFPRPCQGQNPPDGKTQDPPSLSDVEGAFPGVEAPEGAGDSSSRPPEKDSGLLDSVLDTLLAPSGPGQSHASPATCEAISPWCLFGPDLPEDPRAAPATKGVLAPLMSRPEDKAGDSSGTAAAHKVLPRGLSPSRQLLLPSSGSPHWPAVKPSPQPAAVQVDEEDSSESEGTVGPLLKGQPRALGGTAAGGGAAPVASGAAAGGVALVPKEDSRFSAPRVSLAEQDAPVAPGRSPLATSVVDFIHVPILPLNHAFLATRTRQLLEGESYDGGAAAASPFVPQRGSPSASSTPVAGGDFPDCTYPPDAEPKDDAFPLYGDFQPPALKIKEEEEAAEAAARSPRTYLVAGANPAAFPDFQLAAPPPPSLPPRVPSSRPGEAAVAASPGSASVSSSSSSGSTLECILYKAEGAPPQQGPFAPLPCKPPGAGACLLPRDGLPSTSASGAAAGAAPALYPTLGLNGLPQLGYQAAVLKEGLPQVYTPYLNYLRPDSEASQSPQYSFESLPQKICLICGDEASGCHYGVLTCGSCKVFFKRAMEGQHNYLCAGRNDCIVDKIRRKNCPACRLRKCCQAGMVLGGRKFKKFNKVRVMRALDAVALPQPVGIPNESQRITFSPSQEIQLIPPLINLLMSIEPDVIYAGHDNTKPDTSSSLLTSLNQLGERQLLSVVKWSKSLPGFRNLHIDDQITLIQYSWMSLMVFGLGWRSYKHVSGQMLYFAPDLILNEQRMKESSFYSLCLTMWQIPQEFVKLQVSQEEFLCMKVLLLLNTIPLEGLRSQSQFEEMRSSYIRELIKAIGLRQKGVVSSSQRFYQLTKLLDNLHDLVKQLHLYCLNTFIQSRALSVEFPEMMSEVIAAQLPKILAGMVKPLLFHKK
Protocol: as §1, §2
Progesterone receptor: uterine cytosol of the estradiol-primed rabbit, kept at -30° C. in TED buffer (20 mM Tris/HCl, pH 7.4; 1 mM ethylene diamine tetraacetate, 2 mM dithio threitol) with 250 mM of saccharose.
as §3, §4

oestrogen receptor = biological target: T3, oestrogen receptor (Oryctolagus cuniculus, UniProt G1SML6); assay: relative molar bonding affinity to oestrogen receptor (competitive bonding); assay type: binding; conditions: estradiol = 100%; uterine cytosol of immature rabbit; 3H-ethinyl estradiol, 3 nM; 18 h, 0-4° C.
T3 construct: uterine cytosol of the immature rabbit; from tissue; host or cells: uterus (cytosol) of immature rabbit
T3 sequence (G1SML6 1-598): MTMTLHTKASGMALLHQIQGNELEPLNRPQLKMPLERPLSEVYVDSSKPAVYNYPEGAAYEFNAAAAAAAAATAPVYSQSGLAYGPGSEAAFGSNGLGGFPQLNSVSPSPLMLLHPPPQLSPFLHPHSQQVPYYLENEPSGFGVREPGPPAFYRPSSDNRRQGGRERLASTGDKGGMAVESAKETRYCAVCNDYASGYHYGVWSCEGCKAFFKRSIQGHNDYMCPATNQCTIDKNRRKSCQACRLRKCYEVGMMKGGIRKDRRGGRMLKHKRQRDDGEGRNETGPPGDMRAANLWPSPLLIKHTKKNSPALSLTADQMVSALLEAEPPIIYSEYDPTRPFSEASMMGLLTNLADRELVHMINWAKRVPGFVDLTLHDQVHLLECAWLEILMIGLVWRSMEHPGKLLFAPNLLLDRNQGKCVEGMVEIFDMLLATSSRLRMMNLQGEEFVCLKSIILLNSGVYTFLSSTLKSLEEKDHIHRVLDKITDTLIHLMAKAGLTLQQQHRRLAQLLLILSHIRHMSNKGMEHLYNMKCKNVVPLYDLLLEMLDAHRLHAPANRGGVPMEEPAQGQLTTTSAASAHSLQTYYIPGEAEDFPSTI
Protocol: as §1, §2
Oestrogen receptor: uterine cytosol of the immature rabbit, kept at -30° C. in TED buffer with 250 mM of saccharose. Tracer: ^3 H-ethinyl estradiol, 3 nM; reference substance: 17β-estradiol.
as §3
The IC50 for the compound to be tested and for the reference substance were determined from measurements in series of concentrations. The quotient of both values (×100%) is the relative molar bonding affinity.

Row | SMILES | relative molar bonding affinity (RBA) to glucocorticoid receptor (glucocorticoid receptor) [%] | relative molar bonding affinity (RBA) to progesterone receptor (progesterone receptor) [%] | relative molar bonding affinity (RBA) to oestrogen rec. (oestrogen receptor) [%] | further results
1 | CC#C[C@]1(O)CC[C@H]2[C@@H]3CCC4=CC(=O)CCC4=C3[C@@H](c3ccc(N(C)C)cc3)C[C@@]21C [RU 486, Mifepristone, reference compound] | 685 | – | – | complete gravidity inhibition % ([1]; 0.3 mg/animal/day s.c.): 0%; complete gravidity inhibition N*/N (females not pregnant/inseminated females) ([1]; 0.3 mg/animal/day s.c.): 0/5; complete gravidity inhibition % ([1]; 1.0 mg/animal/day s.c.): 40%; complete gravidity inhibition N*/N (females not pregnant/inseminated females) ([1]; 1.0 mg/animal/day s.c.): 2/5; complete gravidity inhibition % ([1]; 3.0 mg/animal/day s.c.): 100%; complete gravidity inhibition N*/N (females not pregnant/inseminated females) ([1]; 3.0 mg/animal/day s.c.): 5/5; ED 50 ([1]; s.c., graphic determination): 1.3 mg/animal/day; uterine weights of cyclic guinea pigs, high dose ([2]; 6 mg/24 hrs, s.c. osmotic pump, day 10 to 18 of cycle): reduce the uterine weights of the treated animals; uterine weights in the anovulatorial cycle in guinea pigs ([2]; doses at which RU 486 increases uterine weights, compared with control animals): increases uterine weights; uterine weights of cyclic guinea pigs, low dose ([2]; low dosis, s.c. osmotic pump, day 10 to 18 of cycle): slight gain in uterine weights
2 | C[C@]12C[C@H](c3ccc(C=NO)cc3)C3=C4CCC(=O)C=C4CC[C@H]3[C@@H]1CC[C@@]2(O)CCl [Example 5, 17α-chloromethyl-11β-[4-(hydroximinomethyl)phenyl]-17β-hydroxy-estra-4,9-diene-3-on] | 32 | 90 | < 0.1 | –
3 | CCOC(=O)ON=Cc1ccc([C@H]2C[C@@]3(C)[C@@H](CC[C@]3(COC)OC)[C@@H]3CCC4=CC(=O)CCC4=C32)cc1 [Example 4] | 66 | 294 | < 0.1 | –

Second part, led by results:

Row | relative molar bonding affinity (RBA) to glucocorticoid receptor (glucocorticoid receptor) [%] | relative molar bonding affinity (RBA) to progesterone receptor (progesterone receptor) [%] | relative molar bonding affinity (RBA) to oestrogen rec. (oestrogen receptor) [%] | SMILES | further results
4 | 73 | 236 | < 0.1 | COC[C@]1(OC)CC[C@H]2[C@@H]3CCC4=CC(=O)CCC4=C3[C@@H](c3ccc(C=NOC(C)=O)cc3)C[C@@]21C [Example 3, 11β-[4-(acetyloximinomethyl)phenyl]-17β-methoxy-17α-methoxymethyl-estra-4,9-diene-3-on] | –
5 | 82 | 136 | < 0.1 | COC[C@]1(OC)CC[C@H]2[C@@H]3CCC4=CC(=O)CCC4=C3[C@@H](c3ccc(C=NOC)cc3)C[C@@]21C [Example 2, 11β-[4-(methoximinomethyl)phenyl]-17β-methoxy-17α-methoxymethyl-estra-4,9-diene-3-on] | –
6 | 39 | 22 | – | CN(C)c1ccc([C@H]2C[C@]3(C)[C@@H](CC[C@]3(O)CCCO)[C@@H]3CCC4=CC(=O)CCC4=C32)cc1 [ZK 98299, Onapristone, reference compound] | –
